Assay results as given in PubChem BioAssay (NCI).
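In this assay, cells in 96-well plates receive the compound at five concentrations for 48 hours. Endpoints are linearly interpolated between the surrounding concentrations. GI50 = concentration required for 50% inhibition of growth. Definition used: TGI = concentration required for complete inhibition of growth.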

How the values were obtained:
Test in all cases: growth of human tumour cells (NCI), 48 h
[1] = test system: HT29 colon
[2] = test system: OVCAR-5 ovarian
[3] = test system: HCC-2998 colon
[4] = test system: UACC-62 melanoma
[5] = test system: SNB-75 CNS
[6] = test system: BT-549 breast
[7] = test system: U251 CNS
[8] = test system: M14 melanoma
[9] = test system: NCI-H23 lung
[10] = test system: SR leukemia
[11] = test system: RPMI-8226 leukemia
[12] = test system: SN12C renal
[13] = test system: HOP-62 NSCLC
[14] = test system: SK-OV-3 ovarian
[15] = test system: SF-268 CNS
[16] = test system: ACHN renal
[17] = test system: MCF7 breast
[18] = test system: MDA-MB-435
[19] = test system: UACC-257 melanoma
[20] = test system: LOX IMVI melanoma
[21] = test system: MOLT-4 leukemia
[22] = test system: IGROV1 ovarian
[23] = test system: PC-3 prostate
[24] = test system: NCI-H460 lung
[25] = test system: OVCAR-3 ovarian
[26] = test system: EKVX NSCLC
[27] = test system: TK-10 renal
[28] = test system: SW-620 colon
[29] = test system: OVCAR-8 ovarian
[30] = test system: SK-MEL-5 melanoma
[31] = test system: HCT-15 colon
[32] = test system: A549 NSCLC
[33] = test system: HCT-116 colon
[34] = test system: K-562 leukemia
[35] = test system: HL-60(TB) leukemia
[36] = test system: NCI/ADR-RES ovarian
[37] = test system: MDA-MB-231 breast
[38] = test system: T-47D breast
[39] = test system: MALME-3M melanoma
[40] = test system: A498 renal
[41] = test system: NCI-H226 lung
[42] = test system: UO-31 renal
[43] = test system: 786-0 renal
[44] = test system: SK-MEL-28 melanoma
[45] = test system: COLO 205 colon
[46] = test system: HOP-92 NSCLC
[47] = test system: DU-145 prostate
[48] = test system: OVCAR-4 ovarian
[49] = test system: SF-295 CNS
[50] = test system: CCRF-CEM leukemia
[51] = test system: SNB-19 CNS
[52] = test system: CAKI-1 renal
[53] = test system: RXF 393 renal
[54] = test system: SF-539 CNS
[55] = test system: KM12 colon
[56] = test system: NCI-H522 lung
[57] = test system: SK-MEL-2 melanoma
[58] = test system: HS 578T breast

Nn1nnc2ccccc21
TGI [1]: > 100000 nM
TGI [2]: > 100000 nM
TGI [3]: > 100000 nM
TGI [4]: > 100000 nM
TGI [5]: > 100000 nM
TGI [6]: > 100000 nM
TGI [7]: > 100000 nM
TGI [8]: > 100000 nM
TGI [9]: > 100000 nM
TGI [10]: > 100000 nM
TGI [11]: > 100000 nM
TGI [12]: > 100000 nM
TGI [13]: > 100000 nM
TGI [14]: > 100000 nM
TGI [15]: > 100000 nM
TGI [16]: > 100000 nM
TGI [17]: > 100000 nM
TGI [18]: > 100000 nM
TGI [19]: > 100000 nM
TGI [20]: > 100000 nM
TGI [21]: > 100000 nM
TGI [22]: > 100000 nM
TGI [23]: > 100000 nM
TGI [24]: > 100000 nM
TGI [25]: > 100000 nM
TGI [26]: > 100000 nM
TGI [27]: > 100000 nM
TGI [28]: > 100000 nM
TGI [29]: > 100000 nM
TGI [30]: > 100000 nM
TGI [31]: > 100000 nM
TGI [32]: > 100000 nM
TGI [33]: > 100000 nM
TGI [34]: > 100000 nM
TGI [35]: > 100000 nM
TGI [36]: > 100000 nM
TGI [37]: > 100000 nM
TGI [38]: > 100000 nM
TGI [39]: > 100000 nM
TGI [40]: > 100000 nM
TGI [41]: > 100000 nM
TGI [42]: > 100000 nM
TGI [43]: > 100000 nM
TGI [44]: > 100000 nM
TGI [45]: > 100000 nM
TGI [46]: > 100000 nM
TGI [47]: > 100000 nM
TGI [48]: > 100000 nM
TGI [49]: > 100000 nM
TGI [50]: > 100000 nM
TGI [51]: > 100000 nM

NCCn1c2c(c3ccccc3c1=O)C(=O)c1ccccc1-2
GI50 [1]: 401 nM
TGI [1]: 5220 nM
GI50 [2]: 674 nM
TGI [2]: 2570 nM
GI50 [3]: 329 nM
TGI [3]: 1640 nM
GI50 [4]: 833 nM
TGI [4]: 5690 nM
GI50 [5]: 1040 nM
TGI [5]: 3200 nM
GI50 [6]: 2420 nM
TGI [6]: 10100 nM
GI50 [7]: 544 nM
TGI [7]: 3590 nM
GI50 [9]: 237 nM
TGI [9]: 1860 nM
GI50 [11]: 338 nM
TGI [11]: 1500 nM
GI50 [12]: 266 nM
TGI [12]: 2130 nM
GI50 [13]: 369 nM
TGI [13]: 1100 nM
GI50 [52]: 129 nM
TGI [52]: 887 nM
GI50 [14]: 528 nM
TGI [14]: 2550 nM
GI50 [15]: 1320 nM
TGI [15]: 8990 nM
GI50 [16]: < 45.3 nM
TGI [16]: 310 nM
GI50 [17]: 292 nM
TGI [17]: 12600 nM
GI50 [18]: 897 nM
TGI [18]: 2510 nM
GI50 [19]: 640 nM
TGI [19]: 2640 nM
GI50 [20]: 347 nM
TGI [20]: 1780 nM
GI50 [21]: < 37.8 nM
TGI [21]: 95 nM
GI50 [53]: 1870 nM
TGI [53]: 6550 nM
GI50 [22]: 592 nM
TGI [22]: > 45800 nM
GI50 [23]: 1110 nM
TGI [23]: 8730 nM
TGI [24]: 6400 nM
GI50 [25]: 681 nM
TGI [25]: 2530 nM
GI50 [26]: 1480 nM
TGI [26]: 4480 nM
GI50 [27]: 778 nM
TGI [27]: 3640 nM
GI50 [28]: 147 nM
TGI [28]: 4320 nM
GI50 [29]: 91.5 nM
TGI [29]: 1570 nM
GI50 [30]: 386 nM
TGI [30]: 1900 nM
GI50 [31]: 271 nM
TGI [31]: 2320 nM
TGI [32]: 676 nM
GI50 [33]: 234 nM
TGI [33]: 1560 nM
GI50 [34]: 231 nM
TGI [34]: 3460 nM
GI50 [35]: 162 nM
TGI [35]: 611 nM
GI50 [36]: 647 nM
TGI [36]: 3300 nM
GI50 [37]: 431 nM
TGI [37]: 1490 nM
GI50 [54]: 211 nM
TGI [54]: 1060 nM
GI50 [38]: 308 nM
TGI [38]: 1280 nM
GI50 [55]: 325 nM
TGI [55]: 2380 nM
GI50 [39]: 577 nM
TGI [39]: 3200 nM
GI50 [40]: 476 nM
TGI [40]: 5490 nM
GI50 [56]: 1240 nM
TGI [56]: > 21700 nM
GI50 [41]: 452 nM
TGI [41]: 3020 nM
GI50 [42]: 458 nM
TGI [42]: 5330 nM
GI50 [43]: 552 nM
TGI [43]: 1780 nM
GI50 [44]: 1460 nM
TGI [44]: 3140 nM
GI50 [57]: 2700 nM
TGI [57]: 9710 nM
GI50 [45]: 605 nM
TGI [45]: 3990 nM
GI50 [58]: 1580 nM
TGI [58]: 6660 nM
GI50 [46]: 626 nM
TGI [46]: 6240 nM
TGI [47]: 2580 nM
GI50 [48]: 982 nM
TGI [48]: 3480 nM
GI50 [49]: 315 nM
TGI [49]: 1480 nM
GI50 [50]: 330 nM
TGI [50]: 1740 nM
GI50 [51]: 251 nM
TGI [51]: 2090 nM
